# US20230355605A1, “DRUG FOR ENHANCING FIBRINOLYTIC SYSTEM, AND USE THEREFOR” (priority 2020, published 2023)
# Experiments:
# [1] = format: physicochemical
# Description: The present compound (yellowish white powder) was prepared in the following shipping packaging form and then subjected to an accelerated stability study (40° C., 75% RH, 6 months).
# Inner package: A double polyethylene bag (100 × 200 mm) was filled with the present compound and sealed with a zip tie. Outer package: The double polyethylene bag filled with the present compound was placed in a fiber drum, and the fiber drum was sealed.
# The present compound was stored in the above packaging form under the conditions of 40° C.12° C. and 75% RH15% RH for 6 months. At points after 1 month, 3 months, and 6 months, appearance observation, an identification test (ultraviolet spectrum, infrared absorption spectrum, flame reaction), water content analysis (water absorption), analysis of the content of the present compound, and a purity test (impurity profile) were performed to evaluate the stability of the present compound.
# [2] = molecular target: human-derived PAI-1 (Homo sapiens, UniProt P05121); test: Human plasma clot fibrinolysis test (PAI-1 inhibitory effect); format: biochemical; settings: human plasma clot with t-PA and human-derived PAI-1
# Sequence of human-derived PAI-1 (P05121 24-402): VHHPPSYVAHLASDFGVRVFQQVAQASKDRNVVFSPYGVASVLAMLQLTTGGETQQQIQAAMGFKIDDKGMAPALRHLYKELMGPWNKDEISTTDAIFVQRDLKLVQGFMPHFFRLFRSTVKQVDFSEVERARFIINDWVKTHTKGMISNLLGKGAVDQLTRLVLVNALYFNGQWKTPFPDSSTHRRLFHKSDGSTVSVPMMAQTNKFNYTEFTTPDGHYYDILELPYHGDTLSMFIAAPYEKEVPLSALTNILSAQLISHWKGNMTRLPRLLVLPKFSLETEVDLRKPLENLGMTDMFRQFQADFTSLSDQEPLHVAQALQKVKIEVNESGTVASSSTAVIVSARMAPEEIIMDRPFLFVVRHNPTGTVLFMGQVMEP
# Description: A human plasma clot fibrinolysis test was performed to evaluate the PAI-1 inhibitory effect of the present compound.
# Specifically, human-derived PAI-1 and the present compound were added to a reaction mixture containing t-PA, which dissolves blood clots caused by addition of thrombin to normal human pooled plasma, and the inhibition of the effect of t-PA by PAI-1 (PAI-1 effect) and the removal of the PAI-1 effect by the present compound (PAI-1 inhibition) (fibrinolysis enhancement) were evaluated.
# [3] = test system: rat model of ferric chloride-induced carotid thrombosis; test: Rat model of ferric chloride-induced carotid thrombosis; format: in vivo; settings: 0.3, 1, 3 mg/kg oral
# Description: The evaluation of the antithrombotic effect was performed according to the method described in Test Example 3 of WO2010/113022. Specifically, two hours before the procedure, the present compound suspended in a 0.5% sodium carboxymethylcellulose (CMC-Na) aqueous solution was orally administered to test groups of rats at dosages of 0.3, 1, and 3 mg/kg. […] Under anesthesia, ferric chloride was applied to a carotid artery of each rat to induce thrombus formation by damaging the blood vessel, and the time from thrombus formation to occlusion of the carotid artery (occlusion time) up to 30 minutes was measured with a Doppler blood flowmeter. Occlusion of the blood flow was defined as a state in which the average blood flow indicated zero on the chart.
# The bleeding effect was also evaluated by measuring the bleeding time. The bleeding time was measured in the same rats as above by sticking the tail of each rat with an animal lancet 20 minutes after the ferric chloride treatment and then observing the presence or absence of blood adhered to filter paper every 30 seconds. The time until bleeding stopped (bleeding time) was used as an index of bleeding.
# [4] = test system: rats; test: 4-week repeated oral dose toxicity study in rats; format: in vivo
# [5] = test system: cynomolgus monkeys; test: 39-week repeated oral dose toxicity study in cynomolgus monkeys; format: in vivo; settings: 10, 30, 100 mg/kg oral, 39 weeks
# Description: A GLP-compliant 39-week repeated oral dose study was performed in cynomolgus monkeys at dosages of 10, 30, and 100 mg/kg.
# [6] = test system: immature rat bone marrow erythrocytes; test: Micronucleus study in rats; settings: in vivo
# Description: The present compound was orally administered to rats to examine its micronucleus-inducing properties and bone marrow cell proliferation suppressive effect on immature bone marrow erythrocytes.
# Specifically, the present compound was orally administered to rats twice 24 hours apart, and bone marrow smears were prepared 18 to 24 hours after the last administration. 2000 immature erythrocytes (IEs) were observed per individual, and the percentage of micronucleated immature erythrocytes (micronucleated IEs, MNIEs) contained in the immature erythrocytes [MNIEs (%)] was calculated. In addition, 1000 erythrocytes were observed as the total erythrocyte count per individual, and the percentage of IEs in the total erythrocytes [IEs (%)] was determined.
# [7] = molecular target: T1, hERG current (Homo sapiens, UniProt Q12809); test: Effect on hERG current (whole-cell patch clamp); format: cell-based; settings: 0.1, 1, 10 µM; up to 10 µM; 10 minutes after application; hERG-expressing HEK293 cells
# T1 construct: expressed in transfected cells; host or cells: HEK293
# T1 sequence (Q12809 whole entry): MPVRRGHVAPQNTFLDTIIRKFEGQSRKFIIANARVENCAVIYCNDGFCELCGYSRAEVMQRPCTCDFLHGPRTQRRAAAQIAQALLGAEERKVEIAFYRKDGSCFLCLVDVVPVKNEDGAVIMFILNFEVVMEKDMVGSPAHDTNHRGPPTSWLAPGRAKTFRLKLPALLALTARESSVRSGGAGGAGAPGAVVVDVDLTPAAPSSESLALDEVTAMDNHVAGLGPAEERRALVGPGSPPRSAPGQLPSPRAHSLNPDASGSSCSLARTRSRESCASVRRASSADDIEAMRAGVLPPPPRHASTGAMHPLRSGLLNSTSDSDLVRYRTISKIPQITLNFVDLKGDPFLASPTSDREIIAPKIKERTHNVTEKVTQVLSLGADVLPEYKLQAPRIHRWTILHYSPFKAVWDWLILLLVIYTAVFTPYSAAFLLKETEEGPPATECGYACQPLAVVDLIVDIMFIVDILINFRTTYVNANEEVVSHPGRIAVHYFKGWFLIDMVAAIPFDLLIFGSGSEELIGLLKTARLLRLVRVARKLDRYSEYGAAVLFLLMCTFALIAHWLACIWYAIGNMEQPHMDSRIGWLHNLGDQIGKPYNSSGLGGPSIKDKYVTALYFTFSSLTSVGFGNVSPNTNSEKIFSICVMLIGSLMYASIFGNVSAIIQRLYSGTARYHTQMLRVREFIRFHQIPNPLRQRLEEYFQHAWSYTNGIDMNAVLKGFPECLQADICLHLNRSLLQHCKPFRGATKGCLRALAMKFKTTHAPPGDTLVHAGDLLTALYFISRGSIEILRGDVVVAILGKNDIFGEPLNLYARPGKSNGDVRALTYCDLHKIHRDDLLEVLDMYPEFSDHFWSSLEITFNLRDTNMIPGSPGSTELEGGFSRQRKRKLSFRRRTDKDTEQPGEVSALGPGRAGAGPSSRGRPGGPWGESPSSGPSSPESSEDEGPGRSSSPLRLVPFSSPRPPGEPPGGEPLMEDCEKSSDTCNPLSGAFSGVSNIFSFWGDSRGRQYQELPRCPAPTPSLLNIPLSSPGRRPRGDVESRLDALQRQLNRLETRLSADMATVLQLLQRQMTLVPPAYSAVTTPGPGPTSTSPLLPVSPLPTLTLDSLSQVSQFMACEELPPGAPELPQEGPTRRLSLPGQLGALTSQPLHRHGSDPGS
# Description: The effect of the present compound on hERG current was examined by a whole-cell patch clamp method using HEK293 cells transfected with the human ether-a-go-go-related gene (hERG). This study was performed as part of a safety pharmacology core battery study to predict the risk of a drug-induced proarrhythmic effect, in particular, prolongation of QT interval on an electrocardiogram, in an in vitro study. The concentration of the present compound was set to 0.1, 1, and 10 µM, and the tail peak current suppression rate (%) 10 minutes after application relative to that before application was used as an index of the effect on hERG current. As a vehicle control, 0.1 v/v% DMSO was used, and as a positive control, 0.1 µmol/L of E-4031 was used.
# [8] = test system: BCR-ABL^IS; test: Phase II long-term administration study with TKI in chronic-phase CML: efficacy against CML; format: in vivo, human; settings: for Cumulative number of patients who achieved a DMR / Cumulative rate of patients who achieved a DMR: with TKI
# Description: Further, the efficacy of the combined use of the present compound and the TKI against CML was evaluated.
# The present compound was orally administered after breakfast to chronic-phase CML patients (33 patients) aged 20 or older and younger than 80 who had been treated orally with the TKI for 1 year or more. The dosage of the present compound was started at 150 mg/day. […] No patients dropped out or were withdrawn from the study, and all of the patients were included in analysis (SAS analysis, FAS analysis, and PPS analysis).
# The efficacy against CML was evaluated from the following two points: • (1) cumulative achievement rate of CML patients who reached a DMR (BCR-ABL^IS: 0.0032% or less) • (2) change in BCR-ABL^IS
# Within 28 days before the start of administration of the present compound, and 4, 8, 12, 24, 36, and 48 weeks after the start of administration of the present compound or at discontinuation, the investigator collected peripheral blood and conducted a test using a BCR-ABL^IS quantitative PCR kit (produced by Sysmex Corporation) to obtain results (IS%, ABL copy number, and BCR-ABL copy number).
# [9] = 30, 60, 120, 250 mg/kg/day oral, 4 weeks
structure (smiles),measurement,setting,value
"O=C(Nc1ccc(Cl)cc1C(=O)[O-])c1cccc(-c2cccc3cccnc23)c1.[Na+] [present compound, sodium 5-chloro-2-({ [3-(quinolin-8-yl)phenyl]carbonyl}amino)benzoate]",period stable in the accelerated stability study,[1]; 6 months,at least 6 months
same,"change from the state before storage (appearance, identification, water content, content, purity)","[1]; 40° C., 75% RH, after 1, 3 and 6 months, shipping packaging",no change
same,concentration with PAI-1 inhibitory effect (fibrinolysis enhancement effect),[2],≥ 10 µM
same,occlusion time,[3]; 2 hours before procedure,prolongs the occlusion time in a dose-dependent manner
same,bleeding time vs vehicle group,[3]; tail lancet 20 minutes after ferric chloride,no significant difference
same,deaths during the administration period,[4]; [9],No deaths
same,"effect on general condition, body weight, food consumption, ophthalmology, ECG, hematology, urinalysis, necropsy, organ weights",[4]; [9],No effect
same,no-observed-adverse-effect level,"[4]; rats, males and females, 4-week repeated oral dose",250 mg/kg/day
same,deaths during the administration period,[5],No deaths
same,"effect on general condition, body weight, food consumption, ophthalmology, ECG, hematology, urinalysis, necropsy, organ weights",[5],No effect
same,micronucleus-inducing effect on immature rat bone marrow erythrocytes,[6],no micronucleus-inducing effect
same,proliferation suppressive effect on bone marrow cells,[6],no proliferation suppressive effect
same,suppressive effect on hERG current (tail peak current suppression rate),[7],no suppressive effect
same,Cumulative number of patients who achieved a DMR,"[8]; 4 weeks after the start of administration, 33 patients",5
same,Cumulative rate of patients who achieved a DMR,[8]; 4 weeks after the start of administration,15.2%
same,Cumulative number of patients who achieved a DMR,"[8]; 8 weeks after the start of administration, 33 patients",9
same,Cumulative rate of patients who achieved a DMR,[8]; 8 weeks after the start of administration,27.3%
same,Cumulative number of patients who achieved a DMR,"[8]; 12 weeks after the start of administration, 33 patients",9
same,Cumulative rate of patients who achieved a DMR,[8]; 12 weeks after the start of administration,27.3%
same,change in BCR-ABL^IS vs baseline,"[8]; 15 patients, 150 mg/day continuous, weeks 12 and 24",significant decrease
same,change in BCR-ABL^IS vs baseline,"[8]; 18 patients, 150 mg/day to 180 mg/day increase, week 48",significant decrease
same,Cumulative number of patients who achieved a DMR,"[8]; 24 weeks after the start of administration, 33 patients",10
same,Cumulative rate of patients who achieved a DMR,[8]; 24 weeks after the start of administration,30.3%
same,change in BCR-ABL^IS vs baseline,"[8]; 33 patients, from week 12 onward, Wilcoxon test",significant decrease
same,Cumulative number of patients who achieved a DMR,"[8]; 36 weeks after the start of administration, 33 patients",11
same,Cumulative rate of patients who achieved a DMR,[8]; 36 weeks after the start of administration,33.3%
same,Cumulative number of patients who achieved a DMR,"[8]; 48 weeks after the start of administration, 33 patients",11
same,Cumulative rate of patients who achieved a DMR,[8]; 48 weeks after the start of administration,33.3%
same,cumulative DMR achievement rate,"[8]; from week 36 onward, 150 to 180 mg/day with TKI",33.3%
same,patients who achieved a DMR,"[8]; of the 33 patients, 150 to 180 mg/day with TKI",11 patients
same,BCR-ABL^IS level (mean ± standard deviation),"[8]; week 4, 33 patients, P = 0.1222",0.0134±0.01301%
same,BCR-ABL^IS level (mean ± standard deviation),"[8]; week 8, 33 patients, P = 0.0929",0.0129±0.01569%
same,BCR-ABL^IS level (mean ± standard deviation),"[8]; week 12, 33 patients, P = 0.0228",0.0133±0.02012%
same,BCR-ABL^IS level (mean ± standard deviation),"[8]; week 24, 33 patients, P = 0.0427",0.0149±0.02596%
same,BCR-ABL^IS level (mean ± standard deviation),"[8]; week 36, 33 patients, P = 0.0304",0.0152±0.03427%
same,BCR-ABL^IS level (mean ± standard deviation),"[8]; week 48, 33 patients, P = 0.0124",0.0210±0.06718%
